Results taken from ChEMBL document CHEMBL3751781, “Three-dimensional QSAR analysis and design of new 1,2,4-oxadiazole antibacterials” (2016).
In brackets after ≈: the same amount, converted by molar mass.

Tested on: Staphylococcus aureus
Assay: Antibacterial against Staphylococcus aureus
Type: functional
Conditions: for MIC: Staphylococcus aureus

MIC | SMILES | -logMIC
128 µg/mL (≈ 503 µM) | O=c1[nH]c(-c2ccc(Oc3ccccc3)cc2)no1 | 0.686
– | Oc1ccc(-c2nc(-c3ccc(Oc4ccccc4)cc3)no2)cc1 | 5.8
– | Oc1ccc(-c2nc(-c3ccc(Oc4ccc(C(F)(F)F)cc4)cc3)no2)cc1 | 5.987
– | Nc1ccc(-c2nc(-c3ccc(Oc4ccccc4)cc3)no2)cc1 | 4.411
– | Nc1ccc(-c2nc(-c3ccc(Oc4ccc(C(F)(F)F)cc4)cc3)no2)cc1 | 5.985
– | FC(F)(F)c1ccc(Oc2ccc(-c3noc(-c4n[nH]cc4Cl)n3)cc2)cc1 | 6.008
– | Brc1c[nH]nc1-c1nc(-c2ccc(Oc3ccccc3)cc2)no1 | 5.949
– | FC(F)(F)c1ccc(Oc2ccc(-c3noc(-c4n[nH]cc4Br)n3)cc2)cc1 | 6.11
– | Ic1c[nH]nc1-c1nc(-c2ccc(Oc3ccccc3)cc2)no1 | 6.064
– | FC(F)(F)c1ccc(Oc2ccc(-c3noc(-c4n[nH]cc4I)n3)cc2)cc1 | 5.518
– | O=[N+]([O-])c1c[nH]nc1-c1nc(-c2ccc(Oc3ccccc3)cc2)no1 | 5.163
– | O=[N+]([O-])c1c[nH]nc1-c1nc(-c2ccc(Oc3ccc(C(F)(F)F)cc3)cc2)no1 | 5.341
– | O=[N+]([O-])c1c[nH]nc1-c1nc(-c2ccc(Oc3ccc(F)cc3)cc2)no1 | 5.906
0.25 µg/mL (≈ 0.631 µM) | C#Cc1c[nH]nc1-c1nc(-c2ccc(Oc3ccc(C(F)(F)F)cc3)cc2)no1 | 7.369
– | N#Cc1c[nH]nc1-c1nc(-c2ccc(Oc3ccc(C(F)(F)F)cc3)cc2)no1 | 5.292
– | OCC#Cc1c[nH]nc1-c1nc(-c2ccc(Oc3ccc(C(F)(F)F)cc3)cc2)no1 | 4.669
– | Oc1ccc(-c2nc(-c3ccc(Oc4ccccc4)cc3)no2)cc1F | 4.467
– | Oc1ccc(-c2nc(-c3ccc(Oc4ccc(C(F)(F)F)cc4)cc3)no2)cc1F | 5.338
– | Oc1ccc(-c2nc(-c3ccc(Oc4ccc(F)cc4)cc3)no2)cc1F | 5.21
– | Oc1c(F)cc(-c2nc(-c3ccc(Oc4ccc(F)cc4)cc3)no2)cc1F | 3.872
– | Nc1ccc(-c2nc(-c3ccc(Oc4ccc(C(F)(F)F)cc4)cc3)no2)cc1F | 5.336

MIC | SMILES | -logMIC
– | Nc1c(F)cc(-c2nc(-c3ccc(Oc4ccccc4)cc3)no2)cc1F | 3.821
2 µg/mL (≈ 4.62 µM) | Nc1c(F)cc(-c2nc(-c3ccc(Oc4ccc(C(F)(F)F)cc4)cc3)no2)cc1F | 5.378
4 µg/mL (≈ 11.3 µM) | c1ccc(Oc2ccc(-c3noc(-c4ccc5[nH]ccc5c4)n3)cc2)cc1 | 5.174
– | FC(F)(F)c1ccc(Oc2ccc(-c3noc(-c4ccc5[nH]ccc5c4)n3)cc2)cc1 | 4.657
2 µg/mL (≈ 5.39 µM) | Fc1ccc(Oc2ccc(-c3noc(-c4ccc5[nH]ccc5c4)n3)cc2)cc1 | 5.224
– | O=[N+]([O-])c1cc(-c2nc(-c3ccc(Oc4ccc(C(F)(F)F)cc4)cc3)no2)cnc1O | 4.017
– | O=[N+]([O-])c1cc(-c2nc(-c3ccc(Oc4ccc(F)cc4)cc3)no2)cnc1O | 3.898
128 µg/mL (≈ 385 µM) | Fc1ccc(-c2nc(-c3ccc(Oc4ccccc4)cc3)no2)cc1 | 0.954
128 µg/mL (≈ 356 µM) | O=[N+]([O-])c1ccc(-c2nc(-c3ccc(Oc4ccccc4)cc3)no2)cc1 | 1.032
128 µg/mL (≈ 310 µM) | O=P(O)(O)c1ccc(-c2nc(-c3ccc(Oc4ccc(F)cc4)cc3)no2)cc1 | 1.17
128 µg/mL (≈ 269 µM) | CS(=O)(=O)Nc1ccc(-c2nc(-c3ccc(Oc4ccc(C(F)(F)F)cc4)cc3)no2)cc1 | 1.312
128 µg/mL (≈ 277 µM) | NS(=O)(=O)c1ccc(-c2nc(-c3ccc(Oc4ccc(C(F)(F)F)cc4)cc3)no2)cc1 | 1.282
128 µg/mL (≈ 311 µM) | NS(=O)(=O)c1ccc(-c2nc(-c3ccc(Oc4ccc(F)cc4)cc3)no2)cc1 | 1.168
128 µg/mL (≈ 340 µM) | O=C(O)c1ccc(-c2nc(-c3ccc(Oc4ccc(F)cc4)cc3)no2)cc1 | 1.079
128 µg/mL (≈ 328 µM) | COC(=O)c1ccc(-c2nc(-c3ccc(Oc4ccc(F)cc4)cc3)no2)cc1 | 1.115
128 µg/mL (≈ 387 µM) | Oc1ccccc1-c1nc(-c2ccc(Oc3ccccc3)cc2)no1 | 0.948
128 µg/mL (≈ 329 µM) | COc1ccc(-c2nc(-c3ccc(Oc4ccccc4)cc3)no2)cc1[N+](=O)[O-] | 1.113
128 µg/mL (≈ 314 µM) | COc1ccc(-c2nc(-c3ccc(Oc4ccc(F)cc4)cc3)no2)cc1[N+](=O)[O-] | 1.158
128 µg/mL (≈ 326 µM) | COc1ccc(-c2nc(-c3ccc(Oc4ccc(F)cc4)cc3)no2)cc1OC | 1.12
128 µg/mL (≈ 344 µM) | FC(F)(F)c1ccc(Oc2ccc(-c3noc(-c4cc[nH]n4)n3)cc2)cc1 | 0.923
– | Nc1c[nH]nc1-c1nc(-c2ccc(Oc3ccc(F)cc3)cc2)no1 | 3.048

MIC | SMILES | -logMIC
128 µg/mL (≈ 289 µM) | CCCCNc1c[nH]nc1-c1nc(-c2ccc(Oc3ccc(C(F)(F)F)cc3)cc2)no1 | 1.243
128 µg/mL (≈ 273 µM) | FC(F)(F)c1ccc(Oc2ccc(-c3noc(-c4n[nH]cc4NC4CCCCC4)n3)cc2)cc1 | 1.3
128 µg/mL (≈ 281 µM) | FC(F)(F)c1ccc(Oc2ccc(-c3noc(-c4n[nH]cc4NC4CCCC4)n3)cc2)cc1 | 1.269
128 µg/mL (≈ 260 µM) | O=C(Nc1c[nH]nc1-c1nc(-c2ccc(Oc3ccc(C(F)(F)F)cc3)cc2)no1)c1ccccc1 | 1.345
128 µg/mL (≈ 260 µM) | O=C(Nc1c[nH]nc1-c1nc(-c2ccc(Oc3ccc(C(F)(F)F)cc3)cc2)no1)c1ccccn1 | 1.347
128 µg/mL (≈ 252 µM) | CCOP(=O)(OCC)c1c[nH]nc1-c1nc(-c2ccc(Oc3ccc(C(F)(F)F)cc3)cc2)no1 | 1.379
128 µg/mL (≈ 406 µM) | c1ccc(Oc2ccc(-c3noc(-c4ccncc4)n3)cc2)cc1 | 0.902
128 µg/mL (≈ 351 µM) | Nc1cc(-c2nc(-c3ccc(Oc4ccc(F)cc4)cc3)no2)cnc1O | 1.046
128 µg/mL (≈ 344 µM) | Fc1ccc(Oc2ccc(-c3noc(-c4c[nH]c5ncccc45)n3)cc2)cc1 | 1.068
128 µg/mL (≈ 349 µM) | O=[N+]([O-])c1c[nH]c(-c2nc(-c3ccc(Oc4ccc(F)cc4)cc3)no2)c1 | 1.052
128 µg/mL (≈ 381 µM) | Nc1c[nH]c(-c2nc(-c3ccc(Oc4ccc(F)cc4)cc3)no2)c1 | 0.966
128 µg/mL (≈ 425 µM) | Brc1ccc(-c2nc(-c3ccccc3)no2)cc1 | 0.856
8 µg/mL (≈ 23 µM) | Oc1ccc(-c2nc(-c3ccc(Oc4ccccc4)c(F)c3)no2)cc1 | 3.774
4 µg/mL (≈ 9.38 µM) | O=C(c1cccc(Oc2ccc(-c3noc(-c4ccc(O)cc4)n3)cc2)c1)C(F)(F)F | 4.669
128 µg/mL (≈ 324 µM) | O=[N+]([O-])c1c(F)cc(-c2nc(-c3ccc(Oc4ccccc4)cc3)no2)cc1F | 1.128
4 µg/mL (≈ 10.7 µM) | O=[N+]([O-])c1ccccc1Oc1ccc(-c2noc(-c3ccc(O)cc3)n2)cc1 | 4.542
1 µg/mL (≈ 2.15 µM) | Clc1c[nH]nc1-c1nc(-c2ccc(Oc3ccc(I)cc3)cc2)no1 | 6.141
2 µg/mL (≈ 4.89 µM) | Oc1ccc(-c2nc(-c3ccc(Oc4ccc(Br)cc4)cc3)no2)cc1 | 5.321
0.5 µg/mL (≈ 1.33 µM) | Fc1ccc(Oc2ccc(-c3noc(-c4n[nH]cc4Cl)n3)cc2)cc1F | 6.619
8 µg/mL (≈ 16.8 µM) | O=[N+]([O-])c1c[nH]nc1-c1nc(-c2ccc(Oc3ccc(I)cc3)cc2)no1 | 4.084
4 µg/mL (≈ 9.45 µM) | Oc1ccc(-c2nc(-c3ccc(Oc4cccc(CBr)c4)cc3)no2)cc1 | 4.662

MIC | SMILES | -logMIC
8 µg/mL (≈ 22.5 µM) | Nc1c[nH]nc1-c1nc(-c2ccc(Oc3ccc(F)c(F)c3)cc2)no1 | 3.794
128 µg/mL (≈ 339 µM) | O=[N+]([O-])c1ccc(-c2nc(-c3ccc(Oc4ccccc4)cc3)no2)cc1F | 1.081
128 µg/mL (≈ 276 µM) | O=[N+]([O-])c1c(F)cc(-c2nc(-c3ccc(Oc4ccc(C(F)(F)F)cc4)cc3)no2)cc1F | 1.286
128 µg/mL (≈ 500 µM) | Oc1ccc(-c2nc(-c3ccc(F)cc3)no2)cc1 | 0.694
2 µg/mL (≈ 5.39 µM) | [N-]=[N+]=Nc1ccc(Oc2ccc(-c3noc(-c4ccc(O)cc4)n3)cc2)cc1 | 5.224
128 µg/mL (≈ 386 µM) | Oc1ccc(-c2nc(-c3ccc(Oc4cccnc4)cc3)no2)cc1 | 0.951
128 µg/mL (≈ 302 µM) | Oc1ccc(-c2nc(-c3ccc(Oc4ccc(CBr)cc4)cc3)no2)cc1 | 1.196
2 µg/mL (≈ 5.39 µM) | [N-]=[N+]=Nc1cc(-c2noc(-c3ccc(O)cc3)n2)ccc1Oc1ccccc1 | 5.224
128 µg/mL (≈ 287 µM) | O=[N+]([O-])c1ccc(-c2nc(-c3ccc(Oc4ccc(C(F)(F)F)cc4)cc3)no2)cc1F | 1.247
128 µg/mL (≈ 503 µM) | Oc1ccc(-c2noc(-c3ccc(O)cc3)n2)cc1 | 0.686
2 µg/mL (≈ 5.55 µM) | COc1ccc(Oc2ccc(-c3noc(-c4ccc(O)cc4)n3)cc2)cc1 | 5.194
128 µg/mL (≈ 272 µM) | CC(=O)N(C(C)=O)c1c[nH]nc1-c1nc(-c2ccc(Oc3ccc(C(F)(F)F)cc3)cc2)no1 | 1.304
128 µg/mL (≈ 289 µM) | CCC(C)Nc1c[nH]nc1-c1nc(-c2ccc(Oc3ccc(C(F)(F)F)cc3)cc2)no1 (centres undefined) | 1.243
4 µg/mL (≈ 9.77 µM) | Oc1ccc(-c2nc(-c3ccc(Oc4cccc(Br)c4)cc3)no2)cc1 | 4.628
8 µg/mL (≈ 21.3 µM) | O=[N+]([O-])c1cc(-c2noc(-c3ccc(O)cc3)n2)ccc1Oc1ccccc1 | 3.848
2 µg/mL (≈ 5.11 µM) | Fc1ccc(Oc2ccc(-c3noc(-c4n[nH]cc4Cl)n3)cc2)cc1Cl | 5.276
128 µg/mL (≈ 299 µM) | O=P(O)(O)Oc1ccc(Oc2ccc(-c3noc(-c4ccc(F)cc4)n3)cc2)cc1 | 1.208
128 µg/mL (≈ 332 µM) | O=C1COc2cc(-c3nc(-c4ccc(Oc5ccccc5)cc4)no3)ccc2N1 | 1.102
1 µg/mL (≈ 2.39 µM) | Fc1ccc(Oc2ccc(-c3noc(-c4n[nH]cc4Br)n3)cc2)cc1F | 6.038
64 µg/mL (≈ 171 µM) | O=C(O)c1ccc(Oc2ccc(-c3noc(-c4ccc(O)cc4)n3)cc2)cc1 | 1.766
128 µg/mL (≈ 386 µM) | Oc1ccc(-c2nc(-c3ccc(Oc4ccncc4)cc3)no2)cc1 | 0.951
